Consider 15 compounds from US20250108023A1, “Products for Masking Bitterness” (The Third People's Hospital of Henan Province, priority 2023, published 2025).

A short description of assay [1]: Broad-spectrum taste masking test on decoctions of extremely bitter Chinese herbal medicine slices. It is filed as in vivo, healthy volunteers. Set-up: key: reduction in bitterness degrees on a 5-degree graduation scale. The note with it: 0.1% taste masking agent in 40% ethanol. As for the experimental part: According to the standard of decocting 100 ml of liquid from 10 g of dry Chinese herbal medicine slices (decoction method: use a stainless steel container, and keep for 20 minutes after boiling), from 300 commonly used Chinese herbal medicine slices, combined with the Chinese Pharmacopoeia, more than 20 Chinese herbal medicines with bitter or extremely bitter properties written in the pharmacopoeia were selected, including Bletilla striata, Cortex qin, Stephania tetrandra, Apricot kernel, Belamcanda chinensis, Angelica dahurica, Lotus seed heart, Toosendan fruit, Andrographis paniculata, Sophora flavescens, Coptis chinensis, Gentiana scabra, Forsythia suspensa, Sophora japonica, Phellodendron amurense, Scutellaria baicalensis, Platycodon grandiflorum, Notopterygium wilfordii, Saposhnikovia divaricata, Perilla frutescens, Zanthoxylum bungeana, Osmanthus fragrans, Sophora flavescens, and Chrysanthemum officinale, totally 24 kinds of Chinese herbal medicines.
Finally, through the 5-degree graduation method, 2 species with a bitterness higher than 3.5 (moderate bitterness) and 7 species with a bitterness higher than 5 degrees (highly bitter, extremely bitter, accompanied by nausea) were screened out, a total of 9 species (Angelica pubescens, Lotus Seed Heart, Toosendan, Andrographis paniculata, Sophora flavescens, Coptis chinensis, Gentiana scabra, Forsythia suspensa, Sophora japonica) are selected as bitterness representatives to participate in the bitterness masking experiment. (Note: The bitterness of Coptis chinensis slices can reach 5.2 after 20 minutes of water decoction. The reference standard solution is 90-degree water brewing Coptis chinensis powder, it is automatically cooled to obtain a solution with a bitter taste of 4.0. Because Coptis chinensis has been used as a standard bitter liquid, it is no longer used).
The experimental method is the same as the previous part.

Assay [2] can be described thus: Oral spray bitterness masking taste test by volunteers with Coptis chinensis standard bitter solution. In kind it is in vivo, healthy volunteers. Set-up: key to bitterness value after drug: bitterness value 0.5–5.5; 1 = none, 5 = unbearable; key to Reduction of bitterness: drop in bitterness value (0.5–5.5 scale) from initial. The settings on record: for Reduction of bitterness / Reduction range / Duration > / inhibition in vivo at 0.2 %: 0.2% solution in 60% ethanol as oral spray; for Reduction of bitterness: original bitterness average 4.0, average of 31 cases; for Reduction range / inhibition in vivo at 0.2 %: relative to original bitterness 4.0; for Duration >: retention time until bitterness rises; for bitterness value after drug: initial bitterness 4.0, 16 cases; for inhibition in vivo at 0.2 %: Homo sapiens, read-out: Reduction range. As for the experimental part:
Purpose of the experiment: it is to screen out compounds that take effect within 5 seconds, last for 30-120 seconds, and it is expected, by using such kind of compounds, the taste of the drug cannot be felt during the duration (30-120 seconds) when taking the drug.
Principle of the experiment: simulate the process of taking medicine and using the taste masking agents, first spray about 0.5 ml of oral spray on the throat (3 times), and after it takes effect quickly, taste 10 ml of bitter standard solution to screen drugs that can be used in advance and can mask the bitter taste.
• 1: Volunteer screening. The research team strictly screened the recruited volunteers and finally selected healthy volunteers as subjects. They signed informed consent forms before the experiment; • 2: Standard bitterness sample preparation. The bitterness of the samples was divided into five levels, and each level was assigned a certain bitterness value range; • 3: The sensory standard was corrected by the oral taste evaluation method, that is, the sensory standard was corrected by comparing the taste evaluation of the volunteers with the established bitterness value of the reference sample group. Specific steps: when the volunteers are doing the oral tasting test, the reference solutions of various concentrations are placed in the tasting cups, and the volunteers hold one of the solutions in their mouths, time it, and rinse their mouths by using the solution so that the bitter taste perception area at the root and sides of the tongue can fully feel the bitter taste of the drug. […] Then dilute all the selected taste masking drugs, prepare the solution, take 10 ml and put it into the spray bottle, spray it into the mouth 3 times, stay for 5 seconds, drink 10 ml of standard bitterness solution, feel and record the bitterness value, keep the standard bitterness solution in the mouth until the bitterness rises, and record the retention time. • 5: Quality control. […] Since the experimental objects are biological samples and there are individual differences between different subjects, there may be individual outliers in the experimental test data. The Grubbs test method was used to exclude outliers in the data, and then the experimental data were plotted in tables and curves for data analysis.
It is necessary to process the experimental data. Specifically, the Grubbs test method was used to perform a circular test and elimination of outliers on the data, and a bilateral test was used to eliminate outliers in the oral test. Considering the characteristics of biological samples, the detection level was selected as 0.1 and the elimination level was selected as 0.05 in this experiment.
The experimental medicinal material processing method mentioned in the above technical scheme is as follows: Preparation of bitter standard solution, use 10 g of Coptis chinensis powder, add 100 ml of pure water above 90 degrees, stir, let stand for 20 minutes, take the supernatant for use, determine the standard bitterness of 4.0 degrees by oral tasting, dilute 5 times, determine the standard bitterness of 2.0 degrees, dilute 2.0 degrees again 5 times, determine the standard bitterness of 0.5 degrees. Compare with the bitterness scoring table, (level 1 means “no bitterness or almost no bitterness”, the bitterness value is 0.5˜1.5; level 2 means “slightly bitter”, the bitterness value is 1.5˜2.5; level 3 means “bitter but acceptable”, the bitterness value is 2.5˜3.5; level 4 means “very bitter, but still tolerable”, the bitterness value is 3.5˜4.5; level 5 means “unbearable bitterness”, the bitterness value is 4.5˜5.5). Adjust the judgment and cognition of bitterness.
The standard bitterness solution used in this experiment to verify the experimental effect is a 4.0 degree bitterness solution of Coptis chinensis prepared according to the above method.

[3] abbreviates: concentration 0.001% in 60% ethanol.
[4] abbreviates: concentration 0.005% in 60% ethanol.
Where [5] appears, read: concentration 0.02% in 60% ethanol.
The mark [6] stands for this setting: concentration 0.10% in 60% ethanol.
The mark [7] stands for this setting: concentration 0.50% in 60% ethanol.

With `CCNC(=O)[C@@H]1C[C@H](C)CC[C@H]1C(C)C` [Menthamide, N-ethyl-L-menthyl carboxamide], the Bitterness reduction value in assay [1] (Andrographis paniculata, original bitterness 5) is on record as 0.5; in assay [1] (Forsythia suspensa, original bitterness 3), 1.7; in assay [1] (Gentiana, original bitterness 5) it was 1; in assay [1] (Lotus seed heart, original bitterness 5) it was 2.8; in assay [1] (Puhuo, original bitterness 5) it was 2.1; in assay [1] (Sophora flavescens, original bitterness 5) it was 1. The compound further yielded a Bitterness reduction value in assay [1] (Toulianzi, original bitterness 5) of 1. The compound also returned a Reduction of bitterness in assay [2] of 2.5. In addition, the Reduction range in assay [2] is 62.50%. Also, the “Duration >” value in assay [2] is over 120 s. For the same compound, the “bitterness value after drug” value in assay [2] (setting [3]) is 2.4; in assay [2] (setting [4]), 1.8; in assay [2] (setting [5]), 1.5; in assay [2] (setting [6]) it was 1.5; in assay [2] (setting [7]) it was 1.6.

On to `O=S(=O)([O-])[O-].[Mg+2]` [Magnesium sulfate], for which, in assay [2], the Reduction of bitterness was 1.5. The compound also yielded a Reduction range in assay [2] of 37.50%. The “Duration >” value in assay [2] was over 20 s. The “bitterness value after drug” value in assay [2] (setting [3]) worked out at 3.5; in assay [2] (setting [4]) it was 3.2; in assay [2] (setting [5]), 2.8; in assay [2] (setting [6]), 2.5; in assay [2] (setting [7]), 2.3.

trans-caryophyllene gave a Reduction of bitterness in assay [2] of 2.3. For the same compound, the Reduction range in assay [2] turned out to be 57.50%. Further, the “Duration >” value in assay [2] is on record as over 30 s. For the same compound, the “bitterness value after drug” value worked out at 3.8 in assay [2] (setting [3]); 2.6 in assay [2] (setting [4]); 1.9 in assay [2] (setting [5]); 1.7 in assay [2] (setting [6]); 1.8 in assay [2] (setting [7]).

For the compound `COC(=O)[C@@H]1CC2=CC(=O)CC[C@]2(C)[C@@]23O[C@@H]2C[C@@]2(C)[C@@H](CC[C@@]24CCC(=O)O4)[C@H]13` [Eplerenone, reference compound], in assay [2], the inhibition in vivo at 0.2 % is 0%.

In assay [2], `CCOC(=O)CNC(=O)[C@@H]1C[C@H](C)CC[C@H]1C(C)C` [Cooling agent WS-5, [((IR, 2S, 5R)-2-isopropyl-5-methyl-cyclohexanecarbonyl)-amino]-ethyl acetate] registered a Reduction of bitterness of 2.3. In assay [2], this compound showed a Reduction range of 57.50%. Further, the “Duration >” value in assay [2] was over 100 s. For the same compound, the “bitterness value after drug” value was found to be 2.6 in assay [2] (setting [3]); 1.8 in assay [2] (setting [4]); 1.7 in assay [2] (setting [5]); 1.7 in assay [2] (setting [6]); 1.8 in assay [2] (setting [7]).

With `CCCN(CCC)S(=O)(=O)c1ccc(C(=O)O)cc1` [Probenecid, reference compound], in assay [2], the “Duration >” value was over 30 s and the inhibition in vivo at 0.2 % amounted to 12.5%.

As to `CC1(C)C2CCC1(C)C(O)C2` (stereo not drawn) [Borneolum, 2-borneol], the “Duration >” value in assay [2] was over 10 s. Further, in assay [2], the inhibition in vivo at 0.2 % was 52.5%. Besides, the “bitterness value after drug” value is listed as 4 in assay [2] (setting [3]); 3.4 in assay [2] (setting [4]); 2.6 in assay [2] (setting [5]); 1.9 in assay [2] (setting [6]); 2.2 in assay [2] (setting [7]).

On to `O=C(CCc1ccc(O)cc1)c1c(O)cc(O)cc1O` [Phloretin], for which the inhibition in vivo at 0.2 % in assay [2] stood at 0%.

With Dodecalactone, in assay [2], the Reduction of bitterness was found to be 0 and the Reduction range was 0.00%.

`O=c1c(O)c(-c2ccc(O)c(O)c2)oc2cc(O)cc(O)c12` [Quinolide]: in assay [2], the inhibition in vivo at 0.2 % worked out at 0%.

Turning to `CNC(=O)C(C)(C(C)C)C(C)C` [Cooling agent WS-23, N,2,3-trimethyl-2-isopropylbutyramide], the “Duration >” value in assay [2] is reported as over 30 s. Moreover, the inhibition in vivo at 0.2 % in assay [2] was 50%. Moreover, the “bitterness value after drug” value in assay [2] (setting [3]) turned out to be 2.5; in assay [2] (setting [4]) it was 2.4; in assay [2] (setting [5]), 2.1; in assay [2] (setting [6]), 2; in assay [2] (setting [7]) it was 2.1.

`CCOC(=O)C1=C(COCCN)NC(C)=C(C(=O)OC)C1c1ccccc1Cl` (stereo not drawn) [Amlodipine, reference compound]: the inhibition in vivo at 0.2 % in assay [2] worked out at 0%.

`O=C(/C=C/C=C/c1ccc2c(c1)OCO2)N1CCCCC1` [Piperine, (E,E)-1-[5-(1,3-benzodioxol-5-yl)-1-oxo-2,4-pentadieny1]-piperidine]: the “Duration >” value in assay [2] is recorded as over 30 s. Moreover, in assay [2], the inhibition in vivo at 0.2 % is 52.5%. Further, the “bitterness value after drug” value in assay [2] (setting [3]) was 3.9; in assay [2] (setting [4]), 2.5; in assay [2] (setting [5]), 2.3; in assay [2] (setting [6]), 1.9; in assay [2] (setting [7]), 1.9.

In assay [2], `COc1cc(C=O)cc(O)c1O` [Hydroxyvanillin] registered a Reduction of bitterness of 0 and a Reduction range of 0.00%.

With `CC1CC(O)CC(C)(C)C1` (stereo not drawn) [Trimethylcyclohexanol], in assay [2], the Reduction of bitterness is reported as 0 and the Reduction range is given as 0.00%.
